From PubChem BioAssay AID248 (DTP/NCI, 2004)
Toxic doses and inconclusive results are not listed. Cut-off read from the data, not from the text of the source: active = T/C of 150% or more; inactive = T/C below 125%.

Tested on: L1210 leukemia ip in BDF1 mice, survival T/C
Experiment: NCI In Vivo Anticancer Drug Screen. Data for tumor model L1210 Leukemia (intraperitoneal) in B6D2F1 (BDF1) mice
Conditions: endpoint: mean survival time, higher = longer survival
How it was run: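 Each compound was tested against a transplantable tumor grown in mice. The endpoint was survival, with treated animals benchmarked against vehicle controls as a simple ratio.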

[1] = dose: 100.0 mg/kg/injection, schedule: Q01DX009 (ip), vehicle: saline
[2] = dose: 200.0 mg/kg/injection, schedule: Q01DX009 (ip), vehicle: saline
[3] = dose: 100.0 mg/kg/injection, schedule: Q04DX003 (ip), vehicle: saline with Tween-80
[4] = dose: 200.0 mg/kg/injection, schedule: Q04DX003 (ip), vehicle: saline with Tween-80
[5] = dose: 400.0 mg/kg/injection, schedule: Q04DX003 (ip), vehicle: saline with Tween-80
[6] = dose: 100.0 mg/kg/injection, schedule: Q04DX003 (ip), vehicle: saline
[7] = dose: 100.0 mg/kg/injection, schedule: Q01DX001 (ip), vehicle: saline with Tween-80
[8] = dose: 200.0 mg/kg/injection, schedule: Q01DX001 (ip), vehicle: saline with Tween-80
[9] = dose: 100.0 mg/kg/injection, schedule: Q01DX009 (ip), vehicle: saline with Tween-80
[10] = dose: 100.0 mg/kg/injection, schedule: Q04DX003 (ip), vehicle: Klucel (hydroxypropylcellulose) (HPC)
[11] = dose: 200.0 mg/kg/injection, schedule: Q01DX009 (ip), vehicle: saline with Tween-80
[12] = dose: 400.0 mg/kg/injection, schedule: Q01DX009 (ip), vehicle: saline with Tween-80
[13] = dose: 25.0 mg/kg/injection, schedule: Q04DX003 (ip), vehicle: saline
[14] = dose: 50.0 mg/kg/injection, schedule: Q04DX003 (ip), vehicle: saline

Measured: T/C

O=C(O)CCCc1ccc(Cl)cc1
inactive: dose: 50.0 mg/kg/injection, schedule: Q01DX009 (ip), vehicle: saline 113 % of control | [1] 105 % of control | [2] 96 % of control

OC(/C=C/c1ccccc1)CC(O)(C(F)(F)F)C(F)(F)F (stereo not given)
inactive: [3] 103 % of control | [4] 110 % of control | [5] 110 % of control

COC(=O)c1csc(-c2csc(CCN)n2)n1
inactive: dose: 100.0 mg/kg/injection, schedule: Q01DX001 (ip), vehicle: saline 102 % of control | [1] 100 % of control | [6] 95 % of control | dose: 200.0 mg/kg/injection, schedule: Q01DX001 (ip), vehicle: saline 98 % of control | [2] 98 % of control | dose: 200.0 mg/kg/injection, schedule: Q04DX003 (ip), vehicle: saline 98 % of control | dose: 400.0 mg/kg/injection, schedule: Q01DX001 (ip), vehicle: saline 101 % of control | dose: 400.0 mg/kg/injection, schedule: Q01DX009 (ip), vehicle: saline 89 % of control | dose: 400.0 mg/kg/injection, schedule: Q04DX003 (ip), vehicle: saline 103 % of control

COc1ccc(/C=C2/Oc3cc(O)ccc3C2=O)cc1
inactive: [7] 90 % of control | [8] 93 % of control | dose: 400.0 mg/kg/injection, schedule: Q01DX001 (ip), vehicle: saline with Tween-80 86 % of control

CCOC(=O)C1C(=O)C(C(=O)Nc2ccccc2)C(=O)C(C(=O)OCC)C1c1ccc(OC)c(OC)c1OC (stereo not given)
inactive: dose: 50.0 mg/kg/injection, schedule: Q01DX001 (ip), vehicle: saline with Tween-80 96 % of control | [7] 100 % of control | [8] 94 % of control

Br/C=C(\Br)C[N+]12CN3CN(CN(C3)C1)C2
inactive: [9] 96 % of control | [3] 100 % of control | [4] 114 % of control | [5] 101 % of control

CCN(CC)CC(=O)N1Cc2ccccc2Cc2ccccc2C1
inactive: dose: 25.0 mg/kg/injection, schedule: Q04DX003 (ip), vehicle: Klucel (hydroxypropylcellulose) (HPC) 92 % of control | dose: 50.0 mg/kg/injection, schedule: Q04DX003 (ip), vehicle: Klucel (hydroxypropylcellulose) (HPC) 100 % of control | [10] 107 % of control

O=C(O)/C=C/c1ccc(Cl)cc1
inactive: dose: 100.0 mg/kg/injection, schedule: Q04DX002 (ip), vehicle: gum acacia 107 % of control | dose: 200.0 mg/kg/injection, schedule: Q04DX002 (ip), vehicle: gum acacia 95 % of control | dose: 400.0 mg/kg/injection, schedule: Q04DX002 (ip), vehicle: gum acacia 107 % of control

CS(=O)(=O)c1nc(Cl)nc(S(C)(=O)=O)c1Cl
inactive: [10] 110 % of control | dose: 200.0 mg/kg/injection, schedule: Q04DX003 (ip), vehicle: Klucel (hydroxypropylcellulose) (HPC) 107 % of control | dose: 400.0 mg/kg/injection, schedule: Q04DX003 (ip), vehicle: Klucel (hydroxypropylcellulose) (HPC) 104 % of control

COC(=O)C(CSCSC)NC(=O)Nc1ccccc1C (stereo not given)
inactive: [9] 102 % of control | [11] 90 % of control | [12] 97 % of control

O=C(O)c1ccccc1C(=O)NNC(=O)c1ccccc1C(=O)O
inactive: [9] 97 % of control | [3] 97 % of control | [11] 94 % of control | [4] 108 % of control | [12] 94 % of control | [5] 92 % of control

COc1cc(C(=O)NN2C(N)=NC(N)=NC2(C)C)cc(OC)c1OC
inactive: dose: 100.0 mg/kg/injection, schedule: Q04DX003 (ip), vehicle: saline sonified 105 % of control | dose: 200.0 mg/kg/injection, schedule: Q04DX003 (ip), vehicle: saline sonified 101 % of control | dose: 400.0 mg/kg/injection, schedule: Q04DX003 (ip), vehicle: saline sonified 106 % of control

CCOC(=O)C1C(=O)Nc2c(ccc3ccccc23)N1C(C)=O (stereo not given)
inactive: dose: 50.0 mg/kg/injection, schedule: Q04DX002 (ip), vehicle: Klucel (hydroxypropylcellulose) (HPC) 96 % of control | dose: 100.0 mg/kg/injection, schedule: Q04DX002 (ip), vehicle: Klucel (hydroxypropylcellulose) (HPC) 93 % of control | dose: 200.0 mg/kg/injection, schedule: Q04DX002 (ip), vehicle: Klucel (hydroxypropylcellulose) (HPC) 93 % of control

CN1CCC(OC(=O)C2CC(=O)N(C)C(=O)C2)CC1
inactive: [13] 98 % of control | [14] 98 % of control | [6] 100 % of control

CCCN1CCN(c2ccccc2)CC1
inactive: [13] 90 % of control | [14] 97 % of control | [6] 92 % of control
